What was measured:
Assay in all cases: relative viability (nuclei count vs DMSO), 5 days (fraction); higher = more cells survive
MK-2206 + Pemetrexed = compound: NC1(c2ccc(-c3nc4ccn5c(=O)[nH]nc5c4cc3-c3ccccc3)cc2)CCC1 [MK-2206] + Nc1nc2[nH]cc(CCc3ccc(C(=O)N[C@@H](CCC(=O)O)C(=O)O)cc3)c2c(=O)[nH]1 [Pemetrexed] (partner 0.2 µM)
Procedure, shortened: (§1)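 Lung cancer cell lines, seeded in 1536-well plates, were treated the following day by pin tool with a single drug or with five library-drug doses (not always all listed) in √10 steps on top of a fixed anchor-drug dose. Cells were fixed and nuclei stained in one step after 5 days, and nuclei were counted. Relative viability is the nuclei count for treated wells divided by that for vehicle wells, reported as medians of duplicate plates.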

MK-2206 + Decitabine = compound: NC1(c2ccc(-c3nc4ccn5c(=O)[nH]nc5c4cc3-c3ccccc3)cc2)CCC1 [MK-2206] + Nc1ncn([C@H]2C[C@H](O)[C@@H](CO)O2)c(=O)n1 [Decitabine] (partner 2 µM)
Procedure, shortened: as §1

Pictilisib + Linsitinib = compound: CS(=O)(=O)N1CCN(Cc2cc3nc(-c4cccc5[nH]ncc45)nc(N4CCOCC4)c3s2)CC1 [Pictilisib] + C[C@]1(O)C[C@@H](c2nc(-c3ccc4ccc(-c5ccccc5)nc4c3)c3c(N)nccn32)C1 [Linsitinib] (partner 1 µM)
Procedure, shortened: as §1

MK-2206 + Crizotinib = compound: NC1(c2ccc(-c3nc4ccn5c(=O)[nH]nc5c4cc3-c3ccccc3)cc2)CCC1 [MK-2206] + C[C@@H](Oc1cc(-c2cnn(C3CCNCC3)c2)cnc1N)c1c(Cl)ccc(F)c1Cl [Crizotinib] (partner 1 µM)
Procedure, shortened: as §1

Pictilisib + Crizotinib = compound: CS(=O)(=O)N1CCN(Cc2cc3nc(-c4cccc5[nH]ncc45)nc(N4CCOCC4)c3s2)CC1 [Pictilisib] + C[C@@H](Oc1cc(-c2cnn(C3CCNCC3)c2)cnc1N)c1c(Cl)ccc(F)c1Cl [Crizotinib] (partner 1 µM)
Procedure, shortened: as §1

Cell Line	relative viability (MK-2206 + Pemetrexed; first compound 0.01 µM)	relative viability (MK-2206 + Pemetrexed; first compound 0.03162 µM)	relative viability (MK-2206 + Pemetrexed; first compound 0.3162 µM)	relative viability (MK-2206 + Pemetrexed; first compound 1 µM)	relative viability (MK-2206 + Decitabine; first compound 0.01 µM)	relative viability (MK-2206 + Decitabine; first compound 0.03162 µM)	relative viability (MK-2206 + Decitabine; first compound 0.3162 µM)	relative viability (MK-2206 + Decitabine; first compound 1 µM)	relative viability (Pictilisib + Linsitinib; first compound 0.02 µM)	relative viability (Pictilisib + Linsitinib; first compound 0.06325 µM)	relative viability (Pictilisib + Linsitinib; first compound 0.6325 µM)	relative viability (Pictilisib + Linsitinib; first compound 2 µM)	relative viability (MK-2206 + Crizotinib; first compound 0.01 µM)	relative viability (MK-2206 + Crizotinib; first compound 0.03162 µM)	relative viability (MK-2206 + Crizotinib; first compound 0.3162 µM)	relative viability (MK-2206 + Crizotinib; first compound 1 µM)	relative viability (Pictilisib + Crizotinib; first compound 0.02 µM)	relative viability (Pictilisib + Crizotinib; first compound 0.06325 µM)	relative viability (Pictilisib + Crizotinib; first compound 0.6325 µM)	relative viability (Pictilisib + Crizotinib; first compound 2 µM)
HOP-62	0.381	0.272	0.273	0.375	0.202	0.227	0.237	0.255	1.03	0.868	0.759	0.779	1.04	0.945	0.903	1.03	1.07	0.972	1.01	0.671
LC-2-ad	0.282	0.254	0.28	0.25	0.748	0.79	0.859	0.881	0.848	0.801	0.326	0.36	0.494	0.453	0.435	0.42	0.443	0.52	0.392	0.359
SW 900	0.494		0.497	0.491	0.449		0.399	0.391												
NCI-H322M	0.64	0.634	0.666	0.679	0.677	0.735	0.787	0.624	0.82	0.837	0.623	0.656	0.934	0.986	0.941	0.979	0.834	0.936	0.878	0.834
SK-LU-1	0.964	0.963	1.04	0.962	0.648	0.592	0.613	0.555	1.21	1.13	0.987	0.628	0.941	0.912	0.964	0.877	0.957	1.17	0.945	0.697
NCI-H1734	0.393	0.391	0.401	0.391	0.527	0.516	0.469	0.447	0.901	0.797	0.615	0.332	0.772	0.725	0.468	0.521	0.739	0.648	0.43	0.296
HCC-44	0.632	0.593	0.61	0.675	0.959	0.968	0.934	0.908	0.607	0.627	0.609	0.303	0.826	0.787	0.756	0.818	0.781	0.783	0.882	0.455
NCI-H1703									1.19	0.634	0.347	0.137	0.809	0.658	0.302	0.511	0.532	0.666	0.261	0.178
NCI-H2170	0.246	0.264	0.286	0.24	0.482	0.462	0.462	0.443					1.17	1.41	1.21	1.18	1.19	1.09	0.973	0.617
NCI-H1395	0.807	0.869	0.79	0.812	0.703	0.853	0.705	0.657	1.15	1.11	0.836	0.597								
NCI-H1355	1.04	1.02	1.02	1.04	0.347	0.362	0.379	0.345	0.759	0.678	0.744	0.402	1.07	1.03	1.08	0.914	1.1	0.983	0.876	0.606
NCI-H1650	0.3	0.379	0.319	0.347	0.465	0.419	0.441	0.469					0.97	1.04	1.04	0.751	1.02	1.1	1.2	0.395
IA-LM									0.482	0.7	0.757	0.249		0.867	0.807	0.819	0.649	0.75	0.628	0.534
NCI-H1666	0.793	0.774	1.03	0.787	0.589	0.703	0.765	0.684	0.744	0.696	0.608	0.431	0.965	1.12	0.789	0.892	1.07	1.05	0.815	0.491
HCC-78	0.934	0.924	0.909	0.934	0.678	0.666	0.643	0.699	0.508	0.413	0.318	0.226	0.348	0.33	0.289	0.286	0.321	0.305	0.222	0.18
H3255	0.557	0.614	0.538	0.508	0.611	0.628	0.51	0.502	1.04	0.823	0.84	0.467	0.833	0.913	0.729	0.616	0.854	0.907	0.803	0.555
NCI-H23	0.713	0.559	0.651	0.64	0.325	0.318	0.295	0.332	0.632	0.641	0.605	0.423	0.563	0.619	0.53	0.543	0.424	0.592	0.344	0.354
NCI-H1944	0.612	0.575	0.603	0.576	0.414	0.449	0.508	0.446	1.09	1.38	0.786	0.643	1.16	1.16	1.02	1.07	1.11	0.962	0.933	0.603
